Assay results reported in ChEMBL document CHEMBL1155866, “Effects of N-pyrrole substitution on the anti-biofilm activities of oroidin derivatives against Acinetobacter baumannii” (Bioorg Med Chem Lett, 2008).

Legend:
Acinetobacter baumannii [1] = assay: Inhibition of […] biofilm formation at 500 uM after 24 hrs by crystal violet reporter assay; type: functional
Acinetobacter baumannii [2] = assay: Inhibition of […] biofilm formation after 24 hrs by crystal violet reporter assay; type: functional, organism-based
Acinetobacter baumannii [3] = assay: Inhibition of […] biofilm dispersion after 24 hrs by crystal violet reporter assay; type: functional, organism-based

Row | SMILES | IC50 (Acinetobacter baumannii [2]) [µM] | EC50 (Acinetobacter baumannii [3]) [µM] | inhibition at 500 µM (Acinetobacter baumannii [1]) [%]
1 | Cn1c(C(=O)NCCCc2c[nH]c(N)n2)nc(Br)c1Br | – | – | 50.7
2 | CCn1c(C(=O)NCCCc2c[nH]c(N)n2)cc(Br)c1Br | – | – | 10.3
3 | Cn1c(C(=O)NCCCc2c[nH]c(N)n2)cc(Br)c1Br [DIHYDROSVENTRIN] | 110 | – | > 99
4 | Nc1nc(CCCNC(=O)c2cc(Br)c(Br)n2-c2ccccc2)c[nH]1 | 97.7 | – | –

More lines, in order of falling IC50 (Acinetobacter baumannii [2]), values ahead:

Row | IC50 (Acinetobacter baumannii [2]) [µM] | EC50 (Acinetobacter baumannii [3]) [µM] | SMILES | inhibition at 500 µM (Acinetobacter baumannii [1]) [%]
5 | 42.8 | – | COc1ccc(Cn2c(C(=O)NCCCc3c[nH]c(N)n3)cc(Br)c2Br)cc1 | –
6 | 40.7 | – | Nc1nc(CCCNC(=O)c2cc(Br)c(Br)n2CCc2ccccc2)c[nH]1 | –
7 | 40.5 | – | Nc1nc(CCCNC(=O)c2cc(Br)c(Br)n2C2CCCC2)c[nH]1 | –
8 | 35.4 | – | Nc1nc(CCCNC(=O)c2cc(Br)c(Br)n2Cc2ccccc2)c[nH]1 | –
9 | 26.8 | 41.3 | Nc1nc(CCCNC(=O)c2cc(Br)c(Br)n2-c2ccc(Br)cc2)c[nH]1 | –
